Values of other authors in patent US8071794B2, “Long wavelength thiol-reactive fluorophores” (Becton, Dickinson and Company, priority 2004, dated 2011).

Conditions: changing environment from methanol (polar protic) to toluene (non-polar); cited from earlier work

CN(C)c1ccc(C2=C(O)C(c3ccc(N(C)C)cc3)=C2O)cc1 [squaraine nucleus III]
increase in fluorescence quantum yield: 20 fold
